Like-named read-outs stand apart in the source and are kept apart here.
Experiments:
[1] = test system: creeping bentgrass putting green
Experimental: The study was carried out on a creeping bentgrass putting green. There were two separate trials (Trial 1 and Trial 2). Trial 1 and Trial 2 were conducted side by side. Each trial consisted of 2 treatments with 4 replications. Plot size was 5×6 ft. Regular mowing and irrigation were performed. A randomized block design was used.
The treatments were as follows: • I. Choline Trial 1-Biweekly • 1. Fertilized Control • 2. Choline 0.5 oz./1,000 ft^2 every two weeks • II. Choline Trial 2-Monthly • 1. Fertilized Control • 2. Choline 0.5 oz./1,000 ft^2 every month
Between 0.125″ and 0.25″ of irrigation was applied 3-4 hours post application. All treatments received equal fertility (applied bi-weekly) with 28-8-18 with UMAXX® fertilizer (Harrell's, Lakeland, Florida) applied on the day following application of treatments.
The trials lasted for 15 weeks and a total of 7 treatment applications in the bi-weekly trial and 4 treatment applications in the monthly trial. The following measurements data were taken at the specified intervals throughout the trials: • a. Volumetric water content (VWC) was measured with a TDR350 moisture sensor (Turf-Tec Intentional, Tallahassee, FL) every 2 weeks. In addition, beginning on days 13, 34, and 69, irrigation was withheld for about 9 days to allow gradual decline of the soil water content, inducing significant decline in leaf color and turf quality. Volumetric water content was measured at day 0 (the day of initiation of irrigation withholding), day 3, day 6, and day 9. Irrigation was resumed after day 9 of the first and second dry down cycle. […] Three readings of VWC were collected from each plot and the average was used for statistical analysis. • b. Leaf color was rated based on a visual scale of 1 through 9, with 1 indicating brown color and 9 indicating dark green color. • c. Turf quality was rated based on a visual scale of 1 through 9, with 9 indicating the best quality and 6 indicating the minimum commercially acceptable quality.

[2] = Experimental: Soil cores (1 inch diameter and 6 inches deep) were taken from a creeping bentgrass putting green and dried at 65° C. for 48 hours then allowed to air dry for 2 days. […] The soil cores were allowed to air dry for additional 4 days and the water drop penetration test was repeated using the same method. The four treatments were 1) control (distilled water), 2) distilled water plus choline at 0.125 oz./1,000 ft^2, 3) distilled water plus choline at 0.25 oz./1,000 ft^2, and 4) distilled water plus choline at 0.5 oz./1,000 ft^2. There were 3 replications for each treatment. The water drops from distilled water or choline solution were placed on soil cores 0.75 inch from the soil surface. As soon as the water drops reached the soil, a timer was started. When each water drop had disappeared and the water had penetrated into the soil, the time elapsed was recorded.
[3] = 0.5 oz/1000 ft^2 biweekly, day 0
[4] = 0.5 oz/1000 ft^2 biweekly, day 14
[5] = 0.5 oz/1000 ft^2 biweekly, day 17
[6] = 0.5 oz/1000 ft^2 biweekly, day 20
[7] = 0.5 oz/1000 ft^2 biweekly, day 22
[8] = 0.5 oz/1000 ft^2 biweekly, day 29
[9] = 0.5 oz/1000 ft^2 biweekly, day 34
[10] = 0.5 oz/1000 ft^2 biweekly, day 38
[11] = 0.5 oz/1000 ft^2 biweekly, day 41
[12] = 0.5 oz/1000 ft^2 biweekly, day 43
[13] = 0.5 oz/1000 ft^2 biweekly, day 57
[14] = 0.5 oz/1000 ft^2 biweekly, day 71
[15] = 0.5 oz/1000 ft^2 biweekly, day 76
[16] = 0.5 oz/1000 ft^2 biweekly, day 78
[17] = 0.5 oz/1000 ft^2 biweekly, day 84
[18] = 0.5 oz/1000 ft^2 biweekly, day 98
[19] = 0.5 oz/1000 ft^2 monthly, day 0
[20] = 0.5 oz/1000 ft^2 monthly, day 14
[21] = 0.5 oz/1000 ft^2 monthly, day 17
[22] = 0.5 oz/1000 ft^2 monthly, day 20
[23] = 0.5 oz/1000 ft^2 monthly, day 22
[24] = 0.5 oz/1000 ft^2 monthly, day 29
[25] = 0.5 oz/1000 ft^2 monthly, day 34
[26] = 0.5 oz/1000 ft^2 monthly, day 38
[27] = 0.5 oz/1000 ft^2 monthly, day 41
[28] = 0.5 oz/1000 ft^2 monthly, day 43
[29] = 0.5 oz/1000 ft^2 monthly, day 57
[30] = 0.5 oz/1000 ft^2 monthly, day 71
[31] = 0.5 oz/1000 ft^2 monthly, day 76
[32] = 0.5 oz/1000 ft^2 monthly, day 78
[33] = 0.5 oz/1000 ft^2 monthly, day 84
[34] = 0.5 oz/1000 ft^2 monthly, day 98
[35] = choline 0.125 oz/1000 ft2 in distilled water
[36] = choline 0.25 oz/1000 ft2 in distilled water
[37] = choline 0.5 oz/1000 ft2 in distilled water

Which “Leaf color (1-9, 9 = dark green)” value [1, 3] does the source give for C[N+](C)(C)CCO.[Cl-] [Choline, choline chloride] here?
Its value is 7.0a.

What about the “Turf quality (1-9, 9 = best)” value [1, 3] of the same compound?
The value was 6.9a.

And the “Leaf color (1-9, 9 = dark green)” value [1, 4]?
Its value is 7.0a.

What about the “Turf quality (1-9, 9 = best)” value [1, 4] of the same compound?
Its value is 7.1a.

What about the “Leaf color (1-9, 9 = dark green)” value [1, 5] of the same compound?
Its value is 7.0a.

What about the “Turf quality (1-9, 9 = best)” value [1, 5] of the same compound?
The value was 7.0a.

And the “Leaf color (1-9, 9 = dark green)” value [1, 6]?
Its value is 7.0a.

And the “Turf quality (1-9, 9 = best)” value [1, 6]?
Its value is 7.0a.

And the “Leaf color (1-9, 9 = dark green)” value [1, 7]?
The value was 6.9a.

And the “Turf quality (1-9, 9 = best)” value [1, 7]?
Its value is 7.0a.

What about the “Leaf color (1-9, 9 = dark green)” value [1, 8] of the same compound?
The value was 7.0a.

What about the “Turf quality (1-9, 9 = best)” value [1, 8] of the same compound?
The value was 7.0a.

What about the “Leaf color (1-9, 9 = dark green)” value [1, 9] of the same compound?
The value was 7.4a.

And the “Turf quality (1-9, 9 = best)” value [1, 9]?
Its value is 6.9a.

And the “Leaf color (1-9, 9 = dark green)” value [1, 10]?
Its value is 7.5a.

And the “Turf quality (1-9, 9 = best)” value [1, 10]?
Its value is 7.1a.

And the “Leaf color (1-9, 9 = dark green)” value [1, 11]?
The value was 7.4a.

And the “Turf quality (1-9, 9 = best)” value [1, 11]?
The value was 7.0a.

What about the “Leaf color (1-9, 9 = dark green)” value [1, 12] of the same compound?
Its value is 7.1a.

And the “Turf quality (1-9, 9 = best)” value [1, 12]?
Its value is 6.5a.

What about the “Leaf color (1-9, 9 = dark green)” value [1, 13] of the same compound?
The value was 6.5a.

What about the “Turf quality (1-9, 9 = best)” value [1, 13] of the same compound?
Its value is 5.9a.

And the “Leaf color (1-9, 9 = dark green)” value [1, 14]?
Its value is 6.4a.

What about the “Turf quality (1-9, 9 = best)” value [1, 14] of the same compound?
The value was 6.1a.

What about the “Leaf color (1-9, 9 = dark green)” value [1, 15] of the same compound?
The value was 6.5a.

And the “Turf quality (1-9, 9 = best)” value [1, 15]?
Its value is 6.0a.

What about the “Leaf color (1-9, 9 = dark green)” value [1, 16] of the same compound?
Its value is 6.4a.

And the “Turf quality (1-9, 9 = best)” value [1, 16]?
Its value is 5.6a.

What about the “Leaf color (1-9, 9 = dark green)” value [1, 17] of the same compound?
The value was 6.8a.

And the “Turf quality (1-9, 9 = best)” value [1, 17]?
Its value is 5.8a.

And the “Leaf color (1-9, 9 = dark green)” value [1, 18]?
The value was 7.0a.

And the “Turf quality (1-9, 9 = best)” value [1, 18]?
Its value is 6.1a.

What about the “Leaf color (1-9, 9 = dark green)” value [1, 19] of the same compound?
Its value is 7.0a.

What about the “Turf quality (1-9, 9 = best)” value [1, 19] of the same compound?
The value was 7.0a.

And the “Leaf color (1-9, 9 = dark green)” value [1, 20]?
The value was 6.9a.

And the “Turf quality (1-9, 9 = best)” value [1, 20]?
The value was 6.9a.

What about the “Leaf color (1-9, 9 = dark green)” value [1, 21] of the same compound?
Its value is 7.0a.

What about the “Turf quality (1-9, 9 = best)” value [1, 21] of the same compound?
The value was 7.0a.

And the “Leaf color (1-9, 9 = dark green)” value [1, 22]?
Its value is 7.0a.

What about the “Turf quality (1-9, 9 = best)” value [1, 22] of the same compound?
The value was 7.3a.

And the “Leaf color (1-9, 9 = dark green)” value [1, 23]?
Its value is 6.9a.

And the “Turf quality (1-9, 9 = best)” value [1, 23]?
Its value is 6.6a.

And the “Leaf color (1-9, 9 = dark green)” value [1, 24]?
Its value is 7.0a.

And the “Turf quality (1-9, 9 = best)” value [1, 24]?
The value was 6.6a.

And the “Leaf color (1-9, 9 = dark green)” value [1, 25]?
Its value is 7.5a.

What about the “Turf quality (1-9, 9 = best)” value [1, 25] of the same compound?
Its value is 7.3a.

And the “Leaf color (1-9, 9 = dark green)” value [1, 26]?
The value was 7.1a.

What about the “Turf quality (1-9, 9 = best)” value [1, 26] of the same compound?
The value was 7.0a.

And the “Leaf color (1-9, 9 = dark green)” value [1, 27]?
The value was 7.5a.

And the “Turf quality (1-9, 9 = best)” value [1, 27]?
The value was 7.0a.

And the “Leaf color (1-9, 9 = dark green)” value [1, 28]?
Its value is 6.9a.

And the “Turf quality (1-9, 9 = best)” value [1, 28]?
Its value is 6.6a.

What about the “Leaf color (1-9, 9 = dark green)” value [1, 29] of the same compound?
The value was 7.1a.

What about the “Turf quality (1-9, 9 = best)” value [1, 29] of the same compound?
Its value is 6.8a.

What about the “Leaf color (1-9, 9 = dark green)” value [1, 30] of the same compound?
Its value is 6.9a.

And the “Turf quality (1-9, 9 = best)” value [1, 30]?
The value was 6.8a.

What about the “Leaf color (1-9, 9 = dark green)” value [1, 31] of the same compound?
The value was 7.0a.

What about the “Turf quality (1-9, 9 = best)” value [1, 31] of the same compound?
Its value is 6.6a.

What about the “Leaf color (1-9, 9 = dark green)” value [1, 32] of the same compound?
Its value is 7.0a.

And the “Turf quality (1-9, 9 = best)” value [1, 32]?
Its value is 6.5a.

And the “Leaf color (1-9, 9 = dark green)” value [1, 33]?
Its value is 7.3a.

What about the “Turf quality (1-9, 9 = best)” value [1, 33] of the same compound?
Its value is 7.0a.

And the “Leaf color (1-9, 9 = dark green)” value [1, 34]?
Its value is 7.7a.

And the “Turf quality (1-9, 9 = best)” value [1, 34]?
Its value is 7.3a.

What about the “time of water drop penetration, first test” value ([2]; 2 days after oven drying of soil cores, not quantified) of the same compound?
The value was “reduced the time of water drop penetration”.

And the “Time of water drop penetration, Average” value [2, 35]?
Its value is 250.3ab seconds.

What about the “Time of water drop penetration, Rep I” value [2, 35] of the same compound?
Its value is 454 s.

What about the “Time of water drop penetration, Rep II” value [2, 35] of the same compound?
Its value is 106 s.

And the “Time of water drop penetration, Rep III” value [2, 35]?
Its value is 191 s.

And the “Time of water drop penetration, Average” value ([2]; choline 0.125 oz/1000 ft2 in distilled water, listed as choline)?
Its value is 250.3 s.

What about the “Time of water drop penetration, Average” value [2, 36] of the same compound?
Its value is 129.7ab seconds.

What about the “Time of water drop penetration, Rep I” value [2, 36] of the same compound?
Its value is 110 s.

What about the “Time of water drop penetration, Rep II” value [2, 36] of the same compound?
The value was 72 s.

And the “Time of water drop penetration, Rep III” value [2, 36]?
The value was 207 s.

What about the “Time of water drop penetration, Average” value ([2]; choline 0.25 oz/1000 ft2 in distilled water, listed as choline) of the same compound?
Its value is 129.7 s.

And the “Time of water drop penetration, Average” value [2, 37]?
Its value is 97.7b seconds.

And the “Time of water drop penetration, Rep I” value [2, 37]?
Its value is 97 s.

And the “Time of water drop penetration, Rep II” value [2, 37]?
Its value is 26 s.

And the “Time of water drop penetration, Rep III” value [2, 37]?
The value was 170 s.

And the “Time of water drop penetration, Average” value ([2]; choline 0.5 oz/1000 ft2 in distilled water, listed as choline)?
The value was 97.7 s.

What about the “Water drop penetration time shorter relative to the control (distilled water)” value ([2]; choline solution 0.5 oz./1,000 ft^2) of the same compound?
The value was 2.5 fold.
